Experimental data as given in PubChem BioAssay AID1918957 (Molecular Pharmacology Branch, DTP, NCI, 2023).

Tested on: NCI-H1876 complex spheroid viability
Assay: Anticancer human tumor NCI-H1876 cell line growth inhibition [LSD1];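 note: spheroids exposed to compounds for one week before readout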;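 for viability, T/C: 100% = DMSO vehicle-treated spheroids so lower means fewer viable cells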
Conditions: for IC50: curve of first compound; for viability, T/C: stronger effect = lower value
Method in brief: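 Complex spheroids of tumor cells with HUVEC and human MSCs, exposed to iadademstat combined with other agents. Each agent tested in half-log steps from near clinical Cmax (else 10 microM top), DMSO ≤0.25%.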

[1] = second compound 0.1 µM, first compound 0.0316 µM
[2] = second compound 0.1 µM, first compound 0.1 µM
[3] = second compound 0.1 µM, first compound 0.316 µM
[4] = second compound 0.1 µM, first compound 1 µM
[5] = second compound 0.1 µM, first compound 3.16 µM
[6] = second compound 0.1 µM, first compound 10 µM
[7] = second compound 0.316 µM, first compound 0.0316 µM
[8] = second compound 0.316 µM, first compound 0.1 µM
[9] = second compound 0.316 µM, first compound 0.316 µM
[10] = second compound 0.316 µM, first compound 1 µM
[11] = second compound 0.316 µM, first compound 3.16 µM
[12] = second compound 0.316 µM, first compound 10 µM
[13] = second compound 1 µM, first compound 0.0316 µM
[14] = second compound 1 µM, first compound 0.1 µM
[15] = second compound 1 µM, first compound 0.316 µM
[16] = second compound 1 µM, first compound 1 µM
[17] = second compound 1 µM, first compound 3.16 µM
[18] = second compound 1 µM, first compound 10 µM
[19] = second compound 3.16 µM, first compound 0.0316 µM
[20] = second compound 3.16 µM, first compound 0.1 µM
[21] = second compound 3.16 µM, first compound 0.316 µM
[22] = second compound 3.16 µM, first compound 1 µM
[23] = second compound 3.16 µM, first compound 3.16 µM
[24] = second compound 3.16 µM, first compound 10 µM
[25] = second compound 10 µM, first compound 0.0316 µM
[26] = second compound 10 µM, first compound 0.1 µM
[27] = second compound 10 µM, first compound 0.316 µM
[28] = second compound 10 µM, first compound 1 µM
[29] = second compound 10 µM, first compound 3.16 µM
[30] = second compound 10 µM, first compound 10 µM
[31] = second compound 0.1 µM, first compound 0.00316 µM
[32] = second compound 0.1 µM, first compound 0.01 µM
[33] = second compound 0.316 µM, first compound 0.00316 µM
[34] = second compound 0.316 µM, first compound 0.01 µM
[35] = second compound 1 µM, first compound 0.00316 µM
[36] = second compound 1 µM, first compound 0.01 µM
[37] = second compound 3.16 µM, first compound 0.00316 µM
[38] = second compound 3.16 µM, first compound 0.01 µM
[39] = second compound 10 µM, first compound 0.00316 µM
[40] = second compound 10 µM, first compound 0.01 µM

Structure (SMILES) | IC50 (second compound 0.1 µM) | IC50 (second compound 0.316 µM) | IC50 (second compound 1 µM) | IC50 (second compound 3.16 µM) | IC50 (second compound 10 µM) | viability, T/C [1] | viability, T/C [2] | viability, T/C [3] | viability, T/C [4] | viability, T/C [7] | viability, T/C [8] | viability, T/C [9] | viability, T/C [10] | viability, T/C [13] | viability, T/C [14] | viability, T/C [15] | viability, T/C [16] | viability, T/C [19] | viability, T/C [20] | viability, T/C [21] | other results
CC(C)c1c(-c2ccccc2)nc2c(C#N)c[nH]n2c1=O + NC1CCC(NC2CC2c2ccccc2)CC1 | 7010 nM | 7170 nM | 6830 nM | 6120 nM | 6210 nM | 100% | 97.1% | 109% | 97% | 90.2% | 106% | 103% | 88.9% | 97.1% | 101% | 99.8% | 95.1% | 99% | 106% | 102% | viability, T/C [5]: 94.2%; viability, T/C [6]: 30.1%; viability, T/C [11]: 93.1%; viability, T/C [12]: 32.4%; viability, T/C [17]: 89.7%; viability, T/C [18]: 30.7%; viability, T/C [22]: 92%; viability, T/C [23]: 88.2%; viability, T/C [24]: 22.5%; viability, T/C [25]: 89.4%; viability, T/C [26]: 93.6%; viability, T/C [27]: 92.6%; viability, T/C [28]: 99.3%; viability, T/C [29]: 90.5%; viability, T/C [30]: 21.3%
CC1COCCN1c1cc(-c2ccnn2C)c2ccnc(-c3ccn[nH]3)c2n1 (stereo not given) + NC1CCC(NC2CC2c2ccccc2)CC1 | 19.9 nM | 21.9 nM | 19.1 nM | 18.7 nM | 9.68 nM | 34.9% | 25.3% | 23.4% | 12.1% | 35.7% | 28.7% | 11% | 21.8% | 35.9% | 15.2% | 11.6% | 12.7% | 36% | 16% | 12.4% | viability, T/C [31]: 86.9%; viability, T/C [32]: 70.5%; viability, T/C [33]: 83.5%; viability, T/C [34]: 79.7%; viability, T/C [35]: 80.5%; viability, T/C [36]: 68.3%; viability, T/C [37]: 77.4%; viability, T/C [38]: 66.8%; viability, T/C [22]: 12.7%; viability, T/C [39]: 64.5%; viability, T/C [40]: 50.2%; viability, T/C [25]: 31.1%; viability, T/C [26]: 19.9%; viability, T/C [27]: 16.7%; viability, T/C [28]: 11.4%
COc1ccc([C@@H](O)c2cc(-c3ncnc4cc(N5CCOCC5)ccc34)c(F)cc2Cl)nn1 + NC1CCC(NC2CC2c2ccccc2)CC1 | 3070 nM | 3490 nM | 3780 nM | 3480 nM | 3130 nM | 109% | 97.4% | 109% | 91.2% | 112% | 105% | 95.8% | 85.3% | 113% | 107% | 99.7% | 84.7% | 113% | 113% | 94.3% | viability, T/C [5]: 49.2%; viability, T/C [6]: 23.4%; viability, T/C [11]: 50.7%; viability, T/C [12]: 21.3%; viability, T/C [17]: 53.9%; viability, T/C [18]: 24.5%; viability, T/C [22]: 76.4%; viability, T/C [23]: 54.2%; viability, T/C [24]: 21.9%; viability, T/C [25]: 101%; viability, T/C [26]: 110%; viability, T/C [27]: 94.2%; viability, T/C [28]: 70.9%; viability, T/C [29]: 53.3%; viability, T/C [30]: 26%
O=C(C=Cn1cnc(-c2cc(C(F)(F)F)cc(C(F)(F)F)c2)n1)NNc1cnccn1 + NC1CCC(NC2CC2c2ccccc2)CC1 | 91.4 nM | 81.9 nM | 83.5 nM | 75.1 nM | 65.2 nM | 90.2% | 46.7% | 23.5% | 23.2% | 87.2% | 42.1% | 22.4% | 20.3% | 86.9% | 43.1% | 22.9% | 20.6% | 85.8% | 38.1% | 23.2% | viability, T/C [31]: 98.9%; viability, T/C [32]: 91.6%; viability, T/C [33]: 104%; viability, T/C [34]: 96.6%; viability, T/C [35]: 94.4%; viability, T/C [36]: 96%; viability, T/C [37]: 93.8%; viability, T/C [38]: 90.9%; viability, T/C [22]: 20.6%; viability, T/C [39]: 94.4%; viability, T/C [40]: 89.1%; viability, T/C [25]: 75.7%; viability, T/C [26]: 35.1%; viability, T/C [27]: 19.3%; viability, T/C [28]: 19.8%
